Converted amounts (≈) assume the structure as drawn. The source made the active and inactive calls. No cut-off for these calls is given here.
What was measured:
3T3-L1 [1] = experiment: Inhibition of adipogenesis in mouse 3T3L1 cells assessed as triglyceride accumulation at 100 ug/ml after 7 days relative to control; type: functional; set-up: scale not given: the % may be the effect or the level left
3T3-L1 [2] = experiment: Inhibition of adipogenesis in mouse 3T3L1 cells assessed as triglyceride accumulation at 50 ug/ml after 7 days relative to control; type: functional; set-up: scale not given: the % may be the effect or the level left
3T3-L1 [3] = experiment: Cytotoxicity against mouse 3T3L1 cells assessed as cell viability after 7 days; type: cell-based; conditions: 3T3-L1, 168 h
3T3-L1 [4] = experiment: Inhibition of adipogenesis in mouse 3T3L1 cells assessed as triglyceride accumulation at 25 ug/ml after 7 days relative to control; type: functional; set-up: scale not given: the % may be the effect or the level left
3T3-L1 [5] = experiment: Inhibition of adipogenesis in mouse 3T3L1 cells assessed as triglyceride accumulation after 7 days; type: functional, cell-based; conditions: 3T3-L1, 168 h
[6] = Cytotoxicity against mouse 3T3L1 cells assessed as cell viability at 25 ug/ml after 7 days relative to control; type: cell-based; conditions: 3T3-L1 cells, read-out: Activity
[7] = Cytotoxicity against mouse 3T3L1 cells assessed as cell viability at 50 ug/ml after 7 days relative to control; type: cell-based; conditions: 3T3-L1 cells, read-out: Activity
[8] = Cytotoxicity against mouse 3T3L1 cells assessed as cell viability at 100 ug/ml after 7 days relative to control; type: cell-based; conditions: 3T3-L1 cells, read-out: Activity
Escherichia coli = experiment: Antibacterial activity against Escherichia coli at 50 ug/disk; type: functional, organism-based
Mycotypha microspora = experiment: Antifungal activity against Mycotypha microspora at 50 ug/disk; type: functional, organism-based
[Chlorella] fusca = Antialgal activity against Chlorella fusca at 50 ug/disk; type: functional, organism-based; conditions: Scenedesmus fuscus
Microbotryum violaceum = experiment: Antifungal activity against Microbotryum violaceum at 50 ug/disk; type: functional, organism-based
Aspergillus ruber = experiment: Antifungal activity against Eurotium rubrum at 50 ug/disk; type: functional, organism-based
Priestia megaterium = experiment: Antibacterial activity against Bacillus megaterium at 50 ug/disk; type: functional, organism-based
3T3-L1 [9] = experiment: Inhibition of adipogenesis in mouse 3T3L1 cells assessed as triglyceride accumulation at 4 ug/ml after 7 days relative to control; type: functional; set-up: scale not given: the % may be the effect or the level left
[10] = Cytotoxicity against mouse 3T3L1 cells assessed as cell viability at 4 ug/ml after 7 days relative to control; type: cell-based; conditions: 3T3-L1 cells, read-out: Activity
[11] = Cytotoxicity against mouse 3T3L1 cells assessed as cell viability at 20 ug/ml after 7 days relative to control; type: cell-based; conditions: 3T3-L1 cells, read-out: Activity
3T3-L1 [12] = experiment: Inhibition of adipogenesis in mouse 3T3L1 cells assessed as triglyceride accumulation at 20 ug/ml after 7 days relative to control; type: functional; set-up: scale not given: the % may be the effect or the level left
[13] = tested on: Human immunodeficiency virus 1; experiment: Antiviral activity against HIV1 infected in human MT4 cells assessed as inhibition of virus-induced cytopathogenic effect at 50 ug/ml after 5 days by MTT assay; type: functional, organism-based
Influenza B virus = experiment: Antiviral activity against influenza B at 100 ug/ml; type: functional, organism-based
Plasmodium berghei = experiment: Antiplasmodial activity against Plasmodium berghei sporozoites expressing GFP infected in hepatocytes at 25 uM by flow cytometry; type: functional, organism-based; conditions: Hepatocyte
[14] = tested on: Human immunodeficiency virus 2; experiment: Antiviral activity against HIV2 infected in human MT4 cells assessed as inhibition of virus-induced cytopathogenic effect at 50 ug/ml after 5 days by MTT assay; type: functional, organism-based
Human gammaherpesvirus 4 = experiment: Antiviral activity against Epstein-Barr virus at 100 ug/ml; type: functional, organism-based
SARS-CoV = experiment: Antiviral activity against SARS virus infected in african green monkey Vero76 cells assessed as inhibition of virus-induced cytopathogenic effect at 100 ug/ml after 3 days by neutral red uptake assay; type: functional, organism-based; conditions: Severe acute respiratory syndrome-related coronavirus, Vero 76
[15] = biological target: Cyclin-dependent kinase 5 (Homo sapiens) (UniProt Q00535); experiment: Inhibition of CDK5 at […]
Cyclin-dependent kinase 5 (Homo sapiens), sequence (Q00535 whole entry, looked up): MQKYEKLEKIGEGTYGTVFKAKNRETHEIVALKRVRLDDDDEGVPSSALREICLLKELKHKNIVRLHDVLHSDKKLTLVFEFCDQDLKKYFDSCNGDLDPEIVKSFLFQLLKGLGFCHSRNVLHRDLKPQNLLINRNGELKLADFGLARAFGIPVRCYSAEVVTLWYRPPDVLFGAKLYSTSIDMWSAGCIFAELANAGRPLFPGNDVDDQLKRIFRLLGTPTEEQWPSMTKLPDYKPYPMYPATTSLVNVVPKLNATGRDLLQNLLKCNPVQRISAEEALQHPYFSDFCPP

MCF7 = experiment: Cytotoxicity against human MCF7 cells at 100 uM after 48 hrs by sulforhodamine B assay; type: functional, cell-based
[16] = biological target: Neutrophil elastase (Homo sapiens) (UniProt P08246); experiment: Inhibition of human neutrophil elastase at 100 uM
Neutrophil elastase (Homo sapiens), sequence (P08246 whole entry): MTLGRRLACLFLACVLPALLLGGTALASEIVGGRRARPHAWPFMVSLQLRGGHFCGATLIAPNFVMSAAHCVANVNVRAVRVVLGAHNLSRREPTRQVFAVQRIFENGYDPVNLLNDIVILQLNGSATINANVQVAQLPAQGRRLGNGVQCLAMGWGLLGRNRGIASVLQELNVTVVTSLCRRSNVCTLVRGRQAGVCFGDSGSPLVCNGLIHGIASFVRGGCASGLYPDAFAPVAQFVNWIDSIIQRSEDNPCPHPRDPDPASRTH

Influenza A virus = experiment: Antiviral activity against influenza A H5N1 subtype at 100 ug/ml; type: functional, organism-based
SF-268 = experiment: Cytotoxicity against human SF268 cells at 100 uM after 48 hrs by sulforhodamine B assay; type: functional, cell-based
NCI-H460 = experiment: Cytotoxicity against human NCI-H460 cells at 100 uM after 48 hrs by sulforhodamine B assay; type: functional, cell-based
[17] = biological target: Dual specificity tyrosine-phosphorylation-regulated kinase 1A (Homo sapiens) (UniProt Q13627); experiment: Inhibition of DYRK1A at […]

| Compound | Activity (3T3-L1 [1]) | IC50 (3T3-L1 [3]) | IC50 (3T3-L1 [5]) | viability at 168 h, 100 ug/ml [8] | Activity (Escherichia coli) | Activity (Mycotypha microspora) | Activity ([Chlorella] fusca) | Activity (Microbotryum violaceum) | Activity (Aspergillus ruber) | Activity (Priestia megaterium) | other results |
| --- | --- | --- | --- | --- | --- | --- | --- | --- | --- | --- | --- |
| NC[C@H](O)c1ccc(O)c(O)c1 [NOREPINEPHRINE] | 33% | > 100 µg/mL | 69 µg/mL (≈ 408 µM) | 69% | – | – | – | – | – | – | Activity (3T3-L1 [2]): 64%; Activity (3T3-L1 [4]): 71%; viability at 168 h, 25 ug/ml [6]: 123%; viability at 168 h, 50 ug/ml [7]: 102% |
| CC1=C[C@@H]2[C@@H](C(C)C)CC=C(C(=O)O)[C@@H]2CC1 | – | – | – | – | inactive | inactive | inactive | inactive | inactive | inactive | – |
| CC1=C[C@@H]2[C@@H](C(C)C)[C@H](O)C=C(C(=O)O)[C@@H]2CC1 | 26% | 76 µg/mL (≈ 304 µM) | 53 µg/mL (≈ 212 µM) | 46% | inactive | inactive | inactive | inactive | inactive | inactive | Activity (3T3-L1 [9]): 117%; viability at 168 h, 4 ug/ml [10]: 82%; viability at 168 h, 20 ug/ml [11]: 79%; Activity (3T3-L1 [12]): 133% |
| CC1=C[C@H]2[C@@H](CC1)C(C(=O)O)=CC[C@@H]2C(C)(C)O | – | – | – | – | inactive | inactive | inactive | inactive | inactive | inactive | – |
| CC1=C[C@@H]2[C@@H](C(C)CO)CC=C(C(=O)O)[C@@H]2CC1 (some centres undefined) | – | – | – | – | inactive | inactive | inactive | inactive | inactive | inactive | – |
| CC(C)[C@H]1CC=C(C(=O)O)[C@@H]2CCC(CO)=C[C@H]12 | – | – | – | – | inactive | inactive | inactive | inactive | inactive | inactive | inhibition [13]: inactive; Activity (Influenza B virus): inactive; inhibition (Plasmodium berghei): inactive; inhibition [14]: inactive; inhibition (Human gammaherpesvirus 4): inactive; Activity (SARS-CoV): inactive; inhibition [15]: inactive; inhibition (MCF7): inactive; inhibition [16]: inactive; Activity (Influenza A virus): inactive; inhibition (SF-268): inactive; inhibition (NCI-H460): inactive; inhibition [17]: inactive |
